Key:
Type in all cases: cell-based, human
[1] = system: p-ERK in AGS cells (KRAS^G12D mutation); assay: Cell p-ERK detection assay; conditions: 3 h incubation, HTRF
Experimental: AGS was purchased from ATCC; Cat. NO.: CRL-1739; F12K was purchased from Gibco; Cat. NO.: 21127-022; FBS was purchased from Gibco; Cat. NO.: 10099-141C; Trypsin (containing EDTA) was purchased from Gibco; Cat. NO.: 25200-072; DMSO was purchased from VWRAMRESCO; Cat. NO.: 0231-500ML; 96-well cell culture plate was purchased from Corning; Cat. NO.: 3599; An white background opaque 96-well plate was purchased from Cisbio; Cat. NO.: 66PL96025; Advance ERK phospho-T202/Y204 kit was purchased from Cisbio; Cat. NO.: 64AERPEH; Cell Counters were purchased from CHEMOMETEC; Model NO.: NC-200; microplate reader was purchased from PerkinElmer; Model NO.: Envison.
AGS is an endogenous human gastric adenocarcinoma cell line containing KRAS^G12D mutation, cultured in F12K+10% FBS medium. On the first day of the experiment, cells in the logarithmic growth phase were taken, digested with trypsin (containing EDTA), collected, and counted, and approximately 20,000 cells/well were inoculated in 96-well cell culture plates and cultured overnight in a 5% CO2 incubator. A 1000×3.16-fold gradient concentration stock of the compound was prepared using DMSO, diluted 200-fold into a 5× compound stock using the medium described above, and a 5× compound stock was added to each cell culture well the day after cell inoculating at a final concentration of 1× and a DMSO content of 0.1%. DMSO was used as an experimental control. After the compound was added and the incubation was continued for 3 h, the medium in the culture wells was removed, […] of cell lysis solution (from Advance ERK phospho-T202/Y204 kit, the same below) was added to each well, mixed well and incubated for 30 min, then […] of the mixed solution was transferred to a white background opaque 96-well plate, and another well was taken as a blank well with adding […] of cell lysis solution. After the transfer, […] of p-ERK HTRF antibody mixed solution (from Advance ERK phospho-T202/Y204 kit) was added to each well, after incubation for 4 h, HTRF fluorescence value (RLU) was read by a microplate reader, and p-ERK level inhibition ratio of the compound was calculated IR (%)=(RLU control-RLU compound)/(RLU control-RLU blank)×100%, compound concentration and corresponding cell p-ERK level inhibition ratio were fitted using Prism 8 four-parameter method, and IC50 value was calculated.

[2] = system: AsPC-1 cells (KRAS^G12D mutation); assay: Cell proliferation inhibition assay (3D, CellTiter-Glo), AsPC-1; conditions: 3D cell model, 5 days
Source text: (§1) AsPC-1 was purchased from ATCC; Cat. NO.: CRL-1682; AGS was purchased from ATCC; Cat. NO.: CRL-1739; RPMI1640 was purchased from Gibco; Cat. NO.: 11875-093 2235123; F12K was purchased from Gibco; Cat. NO.: 21127-022; FBS was purchased from Gibco; Cat. NO.: 10099-141C; Trypsin (containing EDTA) was purchased from Gibco; Cat. NO.: 25200-072; CellTiter Glo-3D was purchased from Progema; Cat. NO.: G9683; 384-well sphere plates were purchased from coming; Cat. NO.: 3830; White background opaque 384-well plates were purchased from coming; Cat. NO.: 3570; Cell Counters were purchased from CHEMOMETEC; Model NO.: NC-200; microplate reader was purchased from PerkinElmer; Model NO.: Envison;
(§2) AsPC-1 is an endogenous human pancreatic cancer cell containing KRAS^G12D mutation, which is cultured in RPMI-1640 medium containing 10% FBS; AGS human gastric cancer cell line containing KRAS^G12D mutation, cultured in F-12K medium containing 10% FBS. Cells in the logarithmic growth phase were taken, digested with trypsin (containing EDTA), harvested and counted, and inoculated with 800 AsPC-1 cells/well or 400 AGS cells/well, respectively, in 384-well sphere plates and cultured overnight at 5% C02 to establish a 3D cell model. A 3.16-fold gradient concentration stock solution of 1000× compound was prepared using DMSO, diluted 100-fold into a 10× compound stock solution using media, and a 10× compound stock solution was added to each cell culture well the day after cell inoculating at a final concentration of 1× with a DMSO content of 0.1%. DMSO was used as an experimental control (control) and culture medium as a blank control (blank). After the addition of compounds, the cells were cultured for 5 days. […] CellTiter-Glo working solution was added to each well, mixed well, and incubated for 30 min. After standing for 30 min at room temperature, 40 μl of the mixed solution was transferred to a white background opaque 384-well plate. Luminescence chemiluminescence value was read on a microplate reader, and the cell proliferation inhibition ratio was calculated, IR (%)=(RLU control-RLU compound)/(RLU control-RLU blank)×100%. XLFit four-parameter method was used to fit the gradient dilution concentration of compounds and the corresponding cell proliferation inhibition ratio, and the IC50 value was calculated. […] Results for exemplary of the example compounds are shown in Table 3 below. - indicates not detected.

[3] = system: AGS cells (KRAS^G12D mutation); assay: Cell proliferation inhibition assay (3D, CellTiter-Glo), AGS; conditions: 3D cell model, 5 days
Source text: as §1, §2

IC50 [1] [nM] | IC50 [2] [nM] | IC50 [3] [nM] | Compound | IC50 ([1]; Homo sapiens, AGS, 3 h) [nM] | IC50 ([2]; Homo sapiens, ASPC1, 120 h) [nM] | IC50 ([3]; Homo sapiens, AGS, 120 h) [nM]
1.19 | 49.4 | 5.13 | C#Cc1c(F)ccc2cc(O)cc(-c3ncc4c(N5C[C@H]6CC[C@@H](C5)N6)nc(OCC56CC(=C)CN5CC(=C(F)F)C6)nc4c3F)c12 (stereo partly drawn) [Example Z215] |  |  | 
5.47 | 71.9 | 4.8 | C#Cc1c(F)ccc2cc(O)cc(-c3ncc4c(N5C[C@H]6CC[C@@H](C5)N6)nc(OCC56CC(=C)CN5CC(=C)C6)nc4c3Cl)c12 [Example Z211, 4-(4-((1R,5S)-3,8-diazacyclo[3.2.1]octan-3-yl)-8-chloro-2-((2,6-dimethylenetetrahydro-1H-pyrrolizin-7a(5H)-yl)methoxy)pyrido[4,3-d]pyrimidin-7-yl)-5-ethynyl-6-fluoronaphthalen-2-ol] |  |  | 
 |  |  | C#Cc1cccc2cc(O)cc(-c3ncc4c(N5C[C@H]6CC[C@@H](C5)N6)nc(OCC56CCC7(CC7)N5CC(=C)C6)nc4c3F)c12 (stereo partly drawn) [Example Z22, 4-(4-((1R,5S)-3,8-diazabicyclo[3.2.1]oct-3-yl)-8-fluoro-2-((6′-methylenetetrahydrospiro[cyclopropane-1,3′-pyrrolizin]-7a′(5′H)-yl)methoxy)pyrido[4,3-d]pyrimidin-7-yl)-5-ethynylnaphthalen-2-ol] | 2.41 | 75.4 | 10.8
 |  |  | C#Cc1cccc2cccc(-c3ncc4c(N5C[C@H]6CC[C@@H](C5)N6)nc(OCC56CC(=C)CN5CC(=C)C6)nc4c3F)c12 [Example Z190, 4-((1R,5S)-3,8-diazabicyclo[3.2.1]octan-3-yl)-2-((2,6-dimethylenetetrahydro-1H-pyrrolizin-7a(5H)-yl)methoxy)-7-(8-ethynylnaphthalen-1-yl)-8-fluoropyrido[4,3-d]pyrimidine] | 105 | 485 | 204
 |  |  | C#Cc1c(F)ccc2cc(O)cc(-c3ncc4c(N5C[C@H]6CC[C@@H](C5)N6)nc(OCC56CC(=C)CN5[C@H]5C[C@H]5C6)nc4c3F)c12 (stereo partly drawn) [Example Z210, 4-(4-((1R,5S)-3,8-diazabicyclo[3.2.1]octan-3-yl)-8-fluoro-2-(((1aS,6aS)-4-methylenehexahydrocyclopropa[b]pyrrolizin-5a(3H)-yl)methoxy)pyrido[4,3-d]pyrimidin-7-yl)-5-ethynyl-6-fluoronaphthalen-2-ol] | 16.6 | 176 | 26
 |  |  | C#Cc1cccc2cc(O)cc(-c3ncc4c(N5C[C@H]6CC[C@@H](C5)N6)nc(OCC56CCCN5CC(=C)C6)nc4c3F)c12 (stereo partly drawn) [Example Z8, 4-(4-((1R,5S)-3,8-diazabicyclo[3.2.1]octan-3-yl)-8-fluoro-2-((2-methylenetetrahydro-1H-pyrrolizin-7a(5H)-yl)methoxy)pyrido[4,3-d]pyrimidin-7-yl)-5-ethynylnaphthalen-2-ol] | 2.78 | 57.7 | 5.3
 |  |  | C#Cc1cccc2cc(N)c(F)c(-c3ncc4c(N5C[C@H]6CC[C@@H](C5)N6)nc(OCC56CC(=C)CN5CC(=C)C6)nc4c3F)c12 [Example Z213, 4-(4-((1R,5S)-3,8-diazabicyclo[3.2.1]octan-3-yl)-2-((2,6-dimethylenetetrahydro-1H-pyrrolizin-7a(5H)-yl)methoxy)-8-fluoropyrido[4,3-d]pyrimidin-7-yl)-5-ethynyl-3-fluoronaphthalen-2-amine] | 62.9 | 335 | 57.5
 |  |  | C#Cc1c(Cl)ccc2cc(O)cc(-c3ncc4c(N5C[C@H]6CC[C@@H](C5)N6)nc(OCC56CC(=C)CN5CC(=C)C6)nc4c3F)c12 [Example Z216, 4-(4-((1R,5S)-3,8-diazabicyclo[3.2.1]octan-3-yl)-2-((2,6-dimethylenetetrahydro-1H-pyrrolizin-7a(5H)-yl)methoxy)-8-fluoropyrido[4,3-d]pyrimidin-7-yl)-6-chloro-5-ethynylnaphthalen-2-ol] | 1.22 | 43.7 | 3.14
 |  |  | C#Cc1cccc2cc(O)cc(-c3ncc4c(N5C[C@H]6CC[C@@H](C5)N6)nc(OCC56CC(=C)CN5CC5(CC5)C6)nc4c3F)c12 (stereo partly drawn) [Example Z23, 4-(4-((1R,5S)-3,8-diazabicyclo[3.2.1]octan-3-yl)-8-fluoro-2-((6′-methylenedihydro-1′H,3′H-spiro[cyclopropane-1,2′-pyrrolizin]-7a′(5′H)-yl)methoxy)pyrido[4,3-d]pyrimidin-7-yl)-5-ethynylnaphthalen-2-ol] | 0.76 | 33.2 | 4.7
0.6 | 14.7 | 6.5 | C#Cc1cccc2cc(O)cc(-c3ncc4c(N5C[C@H]6CC[C@@H](C5)N6)nc(OCC56CC(=C)CN5CC(=C)C6)nc4c3F)c12 [Example Z21] |  |  | 
 |  |  | C#Cc1c(F)ccc2cc(O)cc(-c3ncc4c(N5C[C@H]6CC[C@@H](C5)N6)nc(OC[C@@]56CCCN5CC(=C)C6)nc4c3F)c12 [Example Z12, 4-(4-((1R,5S)-3,8-diazabicyclo[3.2.1]octan-3-yl)-8-fluoro-2-(((S)-2-methylenetetrahydro-1H-pyrrolizin-7a(5H)-yl)methoxy)pyrido[4,3-d]pyrimidin-7-yl)-5-ethynyl-6-fluoronaphthalen-2-ol] | 1.83 | 12.5 | 2.8
 |  |  | C=C1CN2CCCC2(COc2nc(N3C[C@H]4CC[C@@H](C3)N4)c3cnc(-c4cc(O)cc5cccc(F)c45)c(F)c3n2)C1 (stereo partly drawn) [Example Z24, 4-(4-((1R,5S)-3,8-diazabicyclo[3.2.1]octan-3-yl)-8-fluoro-2-((2-methylenetetrahydro-1H-pyrrolizin-7a(5H)-yl)methoxy)pyrido[4,3-d]pyrimidin-7-yl)-5-fluoronaphthalen-2-ol] | 3.59 | 56 | 3.3
 |  |  | C#Cc1cccc2cc(O)cc(-c3ncc4c(N5C[C@H]6CC[C@@H](C5)N6)nc(OCC56CC(=C)CN5CCC65CC5)nc4c3F)c12 (stereo partly drawn) [Example Z106, 4-(4-((1R,5S)-3,8-diazabicyclo[3.2.1]octan-3-yl)-8-fluoro-2-((6′-methylenetetrahydrospiro[cyclopropane-1,1′-pyrrolizin]-7a′(5′H)-yl)methoxy)pyrido[4,3-d]pyrimidin-7-yl)-5-ethynylnaphthalen-2-ol] | 1.36 | 14.7 | 4.6

Compound | IC50 [1] [nM] | IC50 [2] [nM] | IC50 [3] [nM] | IC50 ([1]; Homo sapiens, AGS, 3 h) [nM] | IC50 ([2]; Homo sapiens, ASPC1, 120 h) [nM] | IC50 ([3]; Homo sapiens, AGS, 120 h) [nM]
C#Cc1cccc2cc(N)cc(-c3ncc4c(N5C[C@H]6CC[C@@H](C5)N6)nc(OCC56CC(=C)CN5CC(=C)C6)nc4c3F)c12 [Example Z206, 4-(4-((1R,5S)-3,8-diazabicyclo[3.2.1]octan-3-yl)-2-((2,6-dimethylenetetrahydro-1H-pyrrolizin-7a(5H)-yl)methoxy)-8-fluoropyrido[4,3-d]pyrimidin-7-yl)-5-ethynylnaphthalen-2-amine] | 5.47 | 35.4 | 20.1 |  |  | 

From patent US20240270758A1, “PYRIDINO-OR PYRIMIDO-CYCLIC COMPOUND, PREPARATION METHOD THEREFOR AND MEDICAL USE THEREOF” (Genfleet Therapeutics (Shanghai) Inc., priority 2021, published 2024)
